Test results reported in PubChem BioAssay (NCI).
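Following 48 hours of exposure in 96-well plates, responses at five concentrations were used to interpolate endpoints linearly. Here, GI50 denotes the concentration required for 50% inhibition of growth. At the TGI there is no net growth.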

What was measured:
Test in all cases: NCI-60 cell line screen, 48 h; in the data active means GI50 below about 0.43 µM; inactive means the rest
PC-3 prostate = tested on: PC-3 prostate
NCI/ADR-RES ovarian = tested on: NCI/ADR-RES ovarian
OVCAR-8 ovarian = tested on: OVCAR-8 ovarian
HS 578T breast = tested on: HS 578T breast
TK-10 renal = tested on: TK-10 renal
UACC-62 melanoma = tested on: UACC-62 melanoma
NCI-H226 lung = tested on: NCI-H226 lung
IGROV1 ovarian = tested on: IGROV1 ovarian
ACHN renal = tested on: ACHN renal
OVCAR-4 ovarian = tested on: OVCAR-4 ovarian
OVCAR-5 ovarian = tested on: OVCAR-5 ovarian
HT29 colon = tested on: HT29 colon
M14 melanoma = tested on: M14 melanoma
K-562 leukemia = tested on: K-562 leukemia
MCF7 breast = tested on: MCF7 breast
HCC-2998 colon = tested on: HCC-2998 colon
COLO 205 colon = tested on: COLO 205 colon
SK-OV-3 ovarian = tested on: SK-OV-3 ovarian
MOLT-4 leukemia = tested on: MOLT-4 leukemia
EKVX NSCLC = tested on: EKVX NSCLC
NCI-H460 lung = tested on: NCI-H460 lung
SR leukemia = tested on: SR leukemia
SNB-75 CNS = tested on: SNB-75 CNS
SF-268 CNS = tested on: SF-268 CNS
SN12C renal = tested on: SN12C renal
DU-145 prostate = tested on: DU-145 prostate
HCT-116 colon = tested on: HCT-116 colon
UACC-257 melanoma = tested on: UACC-257 melanoma
HOP-92 NSCLC = tested on: HOP-92 NSCLC
SF-295 CNS = tested on: SF-295 CNS
RPMI-8226 leukemia = tested on: RPMI-8226 leukemia
T-47D breast = tested on: T-47D breast
MDA-MB-435 = tested on: MDA-MB-435
LOX IMVI melanoma = tested on: LOX IMVI melanoma
CAKI-1 renal = tested on: CAKI-1 renal
MDA-MB-231 breast = tested on: MDA-MB-231 breast
A549 NSCLC = tested on: A549 NSCLC
CCRF-CEM leukemia = tested on: CCRF-CEM leukemia
BT-549 breast = tested on: BT-549 breast
NCI-H522 lung = tested on: NCI-H522 lung
KM12 colon = tested on: KM12 colon
UO-31 renal = tested on: UO-31 renal
OVCAR-3 ovarian = tested on: OVCAR-3 ovarian
HOP-62 NSCLC = tested on: HOP-62 NSCLC
SNB-19 CNS = tested on: SNB-19 CNS
HCT-15 colon = tested on: HCT-15 colon
U251 CNS = tested on: U251 CNS
RXF 393 renal = tested on: RXF 393 renal
786-0 renal = tested on: 786-0 renal
SW-620 colon = tested on: SW-620 colon
A498 renal = tested on: A498 renal
SK-MEL-5 melanoma = tested on: SK-MEL-5 melanoma
SK-MEL-2 melanoma = tested on: SK-MEL-2 melanoma
SK-MEL-28 melanoma = tested on: SK-MEL-28 melanoma
HL-60(TB) leukemia = tested on: HL-60(TB) leukemia
SF-539 CNS = tested on: SF-539 CNS
NCI-H23 lung = tested on: NCI-H23 lung
MALME-3M melanoma = tested on: MALME-3M melanoma

CC(C)(C)OC(=O)N(CCCCN(CCCNC(=O)C(F)(F)F)C(=O)OC(C)(C)C)CCCNC(=O)C(F)(F)F
> 100 µM: TGI (PC-3 prostate) | TGI (NCI/ADR-RES ovarian) | TGI (OVCAR-8 ovarian) | TGI (HS 578T breast) | TGI (TK-10 renal) | TGI (UACC-62 melanoma) | TGI (NCI-H226 lung) | TGI (IGROV1 ovarian) | TGI (ACHN renal) | TGI (OVCAR-4 ovarian) | TGI (OVCAR-5 ovarian) | TGI (HT29 colon) | TGI (M14 melanoma) | TGI (K-562 leukemia) | TGI (MCF7 breast) | TGI (HCC-2998 colon) | TGI (COLO 205 colon) | TGI (SK-OV-3 ovarian) | TGI (MOLT-4 leukemia) | TGI (EKVX NSCLC) | TGI (NCI-H460 lung) | TGI (SR leukemia) | TGI (SNB-75 CNS) | TGI (SF-268 CNS) | TGI (SN12C renal) | TGI (DU-145 prostate) | TGI (HCT-116 colon) | TGI (UACC-257 melanoma) | TGI (HOP-92 NSCLC) | TGI (SF-295 CNS) | TGI (RPMI-8226 leukemia) | TGI (T-47D breast) | TGI (MDA-MB-435) | TGI (LOX IMVI melanoma) | TGI (CAKI-1 renal) | TGI (MDA-MB-231 breast) | TGI (A549 NSCLC) | TGI (CCRF-CEM leukemia) | TGI (BT-549 breast) | TGI (NCI-H522 lung) | TGI (KM12 colon) | TGI (UO-31 renal) | TGI (OVCAR-3 ovarian) | TGI (HOP-62 NSCLC) | TGI (SNB-19 CNS) | TGI (HCT-15 colon) | TGI (U251 CNS) | TGI (RXF 393 renal) | TGI (786-0 renal) | TGI (SW-620 colon) | TGI (A498 renal) | TGI (SK-MEL-5 melanoma) | TGI (SK-MEL-2 melanoma) | TGI (SK-MEL-28 melanoma) | TGI (HL-60(TB) leukemia) | TGI (SF-539 CNS) | TGI (NCI-H23 lung)

O=C(Nc1ccc(Nc2ccncc2)cc1)c1ccc([N+](=O)[O-])cc1
19.3 µM: TGI (CAKI-1 renal)
21.2 µM: TGI (MDA-MB-435)
7.12 µM: TGI (U251 CNS)
> 28.2 µM: TGI (K-562 leukemia)
5.08 µM: TGI (SW-620 colon)
33.1 µM: TGI (A549 NSCLC)
12.4 µM: TGI (RXF 393 renal)
20.5 µM: TGI (MCF7 breast)
10.3 µM: TGI (SF-295 CNS)
29 µM: TGI (HOP-62 NSCLC)
32.6 µM: TGI (OVCAR-8 ovarian)
26.2 µM: TGI (UACC-257 melanoma)
19.7 µM: TGI (ACHN renal)
9.64 µM: TGI (UACC-62 melanoma)
16.7 µM: TGI (SK-MEL-28 melanoma)
> 33.3 µM: TGI (MOLT-4 leukemia)
> 24.6 µM: TGI (HL-60(TB) leukemia)
14.9 µM: TGI (MDA-MB-231 breast)
8.79 µM: TGI (SN12C renal)
26.9 µM: TGI (M14 melanoma)
28.9 µM: TGI (SK-MEL-2 melanoma)
29.7 µM: TGI (NCI-H226 lung)
> 44.7 µM: TGI (OVCAR-5 ovarian)
10.4 µM: TGI (UO-31 renal)
> 56.6 µM: TGI (PC-3 prostate)
27.5 µM: TGI (SF-268 CNS)
> 40.6 µM: TGI (HCT-15 colon)
31.3 µM: TGI (TK-10 renal)
3.73 µM: TGI (COLO 205 colon)
14.6 µM: TGI (786-0 renal)
34.6 µM: TGI (NCI-H522 lung)
14.7 µM: TGI (LOX IMVI melanoma)
27.4 µM: TGI (OVCAR-4 ovarian)
9 µM: TGI (A498 renal)
> 20.4 µM: TGI (SR leukemia)
17.3 µM: TGI (MALME-3M melanoma) | TGI (KM12 colon)
13.2 µM: TGI (SF-539 CNS)
36.9 µM: TGI (IGROV1 ovarian)
inactive: GI50 (PC-3 prostate) 13.7 µM | GI50 (NCI/ADR-RES ovarian) 14.2 µM | GI50 (OVCAR-8 ovarian) 8.44 µM | GI50 (HS 578T breast) 5.8 µM | GI50 (TK-10 renal) 11.2 µM | GI50 (UACC-62 melanoma) 2.65 µM | GI50 (NCI-H226 lung) 12.1 µM | GI50 (IGROV1 ovarian) 13 µM | GI50 (ACHN renal) 4.62 µM | GI50 (OVCAR-4 ovarian) 5.37 µM | GI50 (OVCAR-5 ovarian) 9.82 µM | GI50 (HT29 colon) 3.61 µM | GI50 (M14 melanoma) 7.18 µM | GI50 (K-562 leukemia) 3.11 µM | GI50 (MCF7 breast) 3.5 µM | GI50 (HCC-2998 colon) 2.77 µM | GI50 (COLO 205 colon) 1.9 µM | GI50 (SK-OV-3 ovarian) 5.85 µM | GI50 (MOLT-4 leukemia) 3.3 µM | GI50 (EKVX NSCLC) 11.2 µM | GI50 (MALME-3M melanoma) 4.89 µM | GI50 (NCI-H460 lung) 4.24 µM | GI50 (SR leukemia) 2.32 µM | GI50 (SNB-75 CNS) 4.26 µM | GI50 (SF-268 CNS) 6.79 µM | GI50 (SN12C renal) 2.75 µM | GI50 (DU-145 prostate) 8.87 µM | GI50 (HCT-116 colon) 2.93 µM | GI50 (UACC-257 melanoma) 10.5 µM | GI50 (HOP-92 NSCLC) 4.96 µM | GI50 (SF-295 CNS) 3.79 µM | GI50 (RPMI-8226 leukemia) 2.5 µM | GI50 (T-47D breast) 3.3 µM | GI50 (MDA-MB-435) 5.47 µM | GI50 (LOX IMVI melanoma) 3.72 µM | GI50 (CAKI-1 renal) 6.02 µM | GI50 (MDA-MB-231 breast) 3.44 µM | GI50 (A549 NSCLC) 10 µM | GI50 (CCRF-CEM leukemia) 3.37 µM | GI50 (BT-549 breast) 11.6 µM | GI50 (NCI-H522 lung) 12.5 µM | GI50 (KM12 colon) 4.23 µM | GI50 (UO-31 renal) 3.46 µM | GI50 (OVCAR-3 ovarian) 1.93 µM | GI50 (HOP-62 NSCLC) 13.7 µM | GI50 (SNB-19 CNS) 4.47 µM | GI50 (HCT-15 colon) 4.95 µM | GI50 (U251 CNS) 2.49 µM | GI50 (RXF 393 renal) 3.35 µM | GI50 (786-0 renal) 3.47 µM | GI50 (SW-620 colon) 2.22 µM | GI50 (A498 renal) 2.43 µM | GI50 (SK-MEL-5 melanoma) 4.89 µM | GI50 (SK-MEL-2 melanoma) 9.64 µM | GI50 (SK-MEL-28 melanoma) 5 µM | GI50 (HL-60(TB) leukemia) 4.43 µM | GI50 (SF-539 CNS) 3.58 µM | GI50 (NCI-H23 lung) 10.8 µM
> 62.5 µM: TGI (NCI/ADR-RES ovarian)
> 61.2 µM: TGI (EKVX NSCLC)
20 µM: TGI (SNB-75 CNS) | TGI (T-47D breast)
21.7 µM: TGI (HOP-92 NSCLC)
> 62.6 µM: TGI (NCI-H23 lung)
19.8 µM: TGI (SK-OV-3 ovarian)
28.2 µM: TGI (BT-549 breast)
25.9 µM: TGI (HS 578T breast)
42 µM: TGI (DU-145 prostate)
20.7 µM: TGI (SNB-19 CNS)
3.76 µM: TGI (OVCAR-3 ovarian)
16.5 µM: TGI (HT29 colon) | TGI (NCI-H460 lung)
21.4 µM: TGI (SK-MEL-5 melanoma)
12.3 µM: TGI (HCC-2998 colon)
17 µM: TGI (HCT-116 colon) | TGI (RPMI-8226 leukemia)
